Source: publication PMC6832265 (Molecules, 2019)

Legend:
Tdp1 = molecular target: T1, Tdp1 (Homo sapiens, UniProt Q9NUW8); test: Real-time detection of Tdp1 activity (5'-FAM/3'-BHQ1 oligonucleotide biosensor); assay type: biochemical; details: 1.5 nM Tdp1, 50 nM oligonucleotide substrate, 26 °C
T1 construct: made in house; host or cells: Escherichia coli
Text: We first studied the inhibition potency of our compounds to Tdp1 by using a real-time oligonucleotide biosensor assay that we have previously developed. The assay was based on the ability of Tdp1 to remove the fluorescence quencher from the 3’-end of DNA. The substrate is a 16-mer single-stranded oligonucleotide containing both a 5’-FAM fluorophore and a 3’-BHQ1 quencher.
A fluorophore quencher-coupled DNA-biosensor for real-time measurement of Tdp1 cleavage activity was recently designed in our laboratory. The biosensor is a 16-mer single-stranded oligonucleotide containing both a 5’-FAM fluorophore donor and a quenching 3’-BHQ1 moiety.
Recombinant protein Tdp1 was expressed in EsCherichia coli (pET 16B plasmid containing Tdp1 cDNA provided by Dr. K.W. Caldecott, University of Sussex, United Kingdom) and isolated as described. The reaction mixture in a final volume 200 μL contained Tdp1 reaction buffer (50 mM Tris-HCl, 50 mM NaCl, 7 mM β-mercaptoethanol), 50 nM oligonucleotide substrate, and varied concentrations of potential inhibitor. Purified Tdp1 was added in a final concentration of 1.5 nM.
The reaction mixtures were incubated at a constant temperature of 26 °C in a POLARstar OPTIMA fluorimeter, BMG LABTECH, GmbH, to measure fluorescence intensity every minute (Ex485/Em520 nm). Tdp1 inhibition was calculated by comparing the rate of increase in fluorescence of the biosensor in the presence of the compound to that of DMSO (1.5%) control wells. The measurements were carried out in at least two independent experiments. IC50 values were determined using a six-point concentration response curve. The data were imported into the MARS Data Analysis 2.0 program (BMG LABTECH) and the slope during the linear phase (data from 0 to 7 min) was calculated.

[1] = molecular target: T2, recombinant Tdp1 (residues 149–608) (Homo sapiens, UniProt Q9NUW8); test: Intrinsic tryptophan fluorescence quenching binding assay; details: 10 µM Tdp1, 20 mM Tris, 250 mM NaCl, pH 8; triplicate
T2 construct: recombinant Tdp1 (residues 149–608) was obtained from GenScript; host or cells: E. coli BL21(DE3)
T2 sequence (Q9NUW8 149-608): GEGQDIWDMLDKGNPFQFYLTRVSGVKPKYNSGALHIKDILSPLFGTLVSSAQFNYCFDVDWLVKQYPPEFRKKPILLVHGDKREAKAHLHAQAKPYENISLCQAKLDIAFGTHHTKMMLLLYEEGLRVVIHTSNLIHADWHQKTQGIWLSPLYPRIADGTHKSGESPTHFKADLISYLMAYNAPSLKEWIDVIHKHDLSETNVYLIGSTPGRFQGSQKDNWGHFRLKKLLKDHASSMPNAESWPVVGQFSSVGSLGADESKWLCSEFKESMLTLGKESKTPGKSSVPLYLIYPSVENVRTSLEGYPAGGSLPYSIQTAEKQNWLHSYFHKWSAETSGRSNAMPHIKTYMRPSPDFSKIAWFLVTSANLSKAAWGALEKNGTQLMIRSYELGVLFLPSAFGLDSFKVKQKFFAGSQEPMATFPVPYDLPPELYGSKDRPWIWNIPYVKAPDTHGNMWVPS
Procedure: The binding of the synthesized compounds to recombinant Tdp1 was also tested (Table 1 and Table 2) by using an intrinsic tryptophan fluorescence quenching assay. […] As our compounds are aromatic in nature, there is a possibility that they may bind to both the active site as well as non-specifically to the DNA/peptide binding pockets. Nonetheless, our results confirmed that the compounds were indeed binders of Tdp1, thus complementing our inhibition data.
pET-28a(+) plasmid encoding recombinant Tdp1 (residues 149–608) was obtained from GenScript. E. coli BL21(DE3) was used for recombinant protein production. Protein production was induced with 1 mM IPTG at 28 °C with overnight incubation. Tdp1 was purified using affinity and size exclusion chromatography. Fluorescence was measured using a PerkinElmer EnSpire Multimode Reader. Tdp1 concentration was 10 μM with varying compound concentrations. The buffer was 20 mM Tris and 250 mM NaCl (pH 8). The excitation wavelength was 280 nm and intrinsic fluorescence was measured at 350 nm. Control experiments with Tdp1 or the compound on its own were also conducted. Background fluorescence arising from the compounds was subtracted from the final spectrum. The total volume per well was 30 μL. The dissociation constant (KD) was calculated using Equation (1), which takes non-specific binding into account. y = Bmaxx/(KD + x) + Nsx(1) where y denotes the changes in fluorescence intensity; x denotes the concentration of the compounds; Bmax denotes the maximum changes in fluorescence intensity; and Ns is a scaling factor for non-specific binding. Experiments were conducted in triplicate.

T1 sequence (Q9NUW8 whole entry): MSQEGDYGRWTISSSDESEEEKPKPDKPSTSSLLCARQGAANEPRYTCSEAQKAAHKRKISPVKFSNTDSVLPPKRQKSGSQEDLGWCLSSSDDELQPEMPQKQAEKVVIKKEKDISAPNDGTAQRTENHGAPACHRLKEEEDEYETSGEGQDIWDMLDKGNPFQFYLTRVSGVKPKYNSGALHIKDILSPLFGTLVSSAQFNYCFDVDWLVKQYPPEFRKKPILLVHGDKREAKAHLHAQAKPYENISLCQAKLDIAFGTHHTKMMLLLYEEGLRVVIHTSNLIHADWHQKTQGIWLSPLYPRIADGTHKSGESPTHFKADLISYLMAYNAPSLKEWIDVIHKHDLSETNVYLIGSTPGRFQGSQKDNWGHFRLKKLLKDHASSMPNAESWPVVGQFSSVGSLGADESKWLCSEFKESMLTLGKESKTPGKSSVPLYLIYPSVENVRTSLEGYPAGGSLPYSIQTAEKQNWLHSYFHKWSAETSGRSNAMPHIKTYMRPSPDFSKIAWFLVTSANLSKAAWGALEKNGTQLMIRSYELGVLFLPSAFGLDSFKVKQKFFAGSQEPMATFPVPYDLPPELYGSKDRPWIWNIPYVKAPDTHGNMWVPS

| Compound | IC50 (Tdp1) | Kd [1] |
| --- | --- | --- |
| CC(=O)C1=C(O)C=C2Oc3c(-c4csc(N/N=C/c5ccncc5)n4)c(O)c(C)c(O)c3[C@@]2(C)C1=O [(+)-16a, 4-[(1E)-(2-{4-[(1R)-12-Acetyl-3,5,11-trihydroxy-1,4-dimethyl-13-oxo-8-oxatricyclo[7.4.0.0^2,7]trideca-2(7),3,5,9,11-pentaen-6-yl]-1,3-thiazol-2-yl}hydrazin-1-ylidene)methyl]pyridin-1-ium bromide] | 0.16 ± 0.016 µM | 139 ± 32 µM |
| CC(=O)C1=C(O)C=C2Oc3c(-c4csc(N/N=C/c5ccccn5)n4)c(O)c(C)c(O)c3[C@@]2(C)C1=O [(+)-16b, 2-[(1E)-(2-{4-[(1R)-12-Acetyl-3,5,11-trihydroxy-1,4-dimethyl-13-oxo-8-oxatricyclo[7.4.0.0^2,7]trideca-2(7),3,5,9,11-pentaen-6-yl]-1,3-thiazol-2-yl}hydrazin-1-ylidene)methyl]pyridin-1-ium bromide] | 0.492 ± 0.088 µM | 77 ± 24 µM |
| CC(=O)C1=C(O)C=C2Oc3c(-c4csc(N/N=C/c5ccco5)n4)c(O)c(C)c(O)c3[C@@]2(C)C1=O [(+)-16k, (2R)-4-Acetyl-5,11,13-trihydroxy-2,12-dimethyl-10-{2-[(E)-2-[(furan-2-yl)methylidene] hydrazin-1-yl]-1,3-thiazol-4-yl}-8-oxatricyclo[7.4.0.0^2,7]trideca-1(9),4,6,10,12-pentaen-3-one] | 0.12 ± 0.015 µM | 67 ± 9 µM |
| CC(=O)C1=C(O)C=C2Oc3c(-c4csc(N/N=C/c5cccn5C)n4)c(O)c(C)c(O)c3[C@@]2(C)C1=O [(+)-16n, (2R)-4-Acetyl-5,11,13-trihydroxy-2,12-dimethyl-10-{2-[(E)-2-[(1-methyl-pyrrol-2-yl)methylidene]hydrazin-1-yl]-1,3-thiazol-4-yl}-8-oxatricyclo[7.4.0.0^2,7]trideca-1(9),4,6,10,12-pentaen-3-one] | 0.151 ± 0.014 µM | 719 ± 17 µM |
| CC(=O)C1=C(O)C=C2Oc3c(-c4csc(N/N=C/c5cnc[nH]5)n4)c(O)c(C)c(O)c3[C@@]2(C)C1=O [(+)-16o, 5-[(1E)-(2-{4-[(1R)-12-Acetyl-3,5,11-trihydroxy-1,4-dimethyl-13-oxo-8-oxatricyclo[7.4.0.0^2,7]trideca-2(7),3,5,9,11-pentaen-6-yl]-1,3-thiazol-2-yl}hydrazin-1-ylidene)methyl]-1H-imidazol-1-ium bromide] | 1.69 ± 0.89 µM | 38 ± 2 µM |
| CC(=O)C1=C(O)C=C2Oc3c(-c4csc(N/N=C/c5c[nH]c6ccccc56)n4)c(O)c(C)c(O)c3[C@@]2(C)C1=O [(+)-16p, (2R)-4-Acetyl-5,11,13-trihydroxy-2,12-dimethyl-10-{2-[(E)-2-[(1H-indole-3-yl)methylidene] hydrazin-1-yl]-1,3-thiazol-4-yl}-8-oxatricyclo[7.4.0.0^2,7]trideca-1(9),4,6,10,12-pentaen-3-one] | 0.138 ± 0.003 µM | 268 ± 11 µM |
| COc1ccc(/C=N/Nc2nc(-c3c(O)c(C)c(O)c4c3OC3=CC(O)=C(C(C)=O)C(=O)[C@@]34C)cs2)cc1COc1ccc(F)c(Cl)c1 [(+)-17d, (2R)-4-Acetyl-10-{2-[(E)-2-({3-[(3-chloro-4-fluorophenoxy)methyl]-4-methoxyphenyl}methylidene)hydrazin-1-yl]-1,3-thiazol-4-yl}-5,11,13-trihydroxy-2,12-dimethyl-8-oxatricyclo[7.4.0.0^2,7]trideca-1(9),4,6,10,12-pentaen-3-one] | 0.077 ± 0.003 µM | 130 ± 29 µM |
| COc1ccc(/C=N/Nc2nc(-c3c(O)c(C)c(O)c4c3OC3=CC(O)=C(C(C)=O)C(=O)[C@@]34C)cs2)cc1CSc1cc(C)ccc1C(C)(C)C [(+)-17g, (2R)-4-Acetyl-10-{2-[(E)-2-[(3-{[(2-tert-butyl-5-methylphenyl)sulfanyl]methyl}-4-methoxyphenyl)methylidene]hydrazin-1-yl]-1,3-thiazol-4-yl}-5,11,13-trihydroxy-2,12-dimethyl-8-oxatricyclo[7.4.0.0^2,7]trideca-1(9),4,6,10,12-pentaen-3-one] | 0.122 ± 0.025 µM | 223 ± 42 µM |

Now those with a lower IC50 (Tdp1), led by results:

| IC50 (Tdp1) | Kd [1] | Compound |
| --- | --- | --- |
| 0.07 ± 0.004 µM | 597 ± 98 µM | CC(=O)C1=C(O)C=C2Oc3c(-c4csc(N/N=C/c5ccc([N+](=O)[O-])s5)n4)c(O)c(C)c(O)c3[C@@]2(C)C1=O [(+)-16d, (2R)-4-Acetyl-5,11,13-trihydroxy-2,12-dimethyl-10-{2-[(E)-2-[(5-nitrothiophen-2-yl)methylidene]hydrazin-1-yl]-1,3-thiazol-4-yl}-8-oxatricyclo[7.4.0.0^2,7]trideca-1(9),4,6,10,12-pentaen-3-one] |
| 0.055 ± 0.008 µM | 113 ± 52 µM | CC(=O)C1=C(O)C=C2Oc3c(-c4csc(N/N=C/c5ccc(-c6cccc(Cl)c6)o5)n4)c(O)c(C)c(O)c3[C@@]2(C)C1=O [(+)-16r, (2R)-4-Acetyl-10-{2-[(E)-2-{[5-(3-chlorophenyl)furan-2-yl]methylidene}hydrazin-1-yl]-1,3-thiazol-4-yl}-5,11,13-trihydroxy-2,12-dimethyl-8-oxatricyclo[7.4.0.0^2,7]trideca-1(9),4,6,10,12-pentaen-3-one] |
| 0.026 ± 0.008 µM | 212 ± 25 µM | COc1ccc(/C=N/Nc2nc(-c3c(O)c(C)c(O)c4c3OC3=CC(O)=C(C(C)=O)C(=O)[C@@]34C)cs2)cc1COc1ccc(F)cc1 [(+)-17a, (2R)-4-Acetyl-10-{2-[(E)-2-({3-[(4-fluorophenoxy)methyl]-4-methoxyphenyl}methylidene)hydrazin-1-yl]-1,3-thiazol-4-yl}-5,11,13-trihydroxy-2,12-dimethyl-8-oxatricyclo[7.4.0.0^2,7]trideca-1(9),4,6,10,12-pentaen-3-one] |
| 0.041 ± 0.007 µM | 204 ± 23 µM | COc1ccc(/C=N/Nc2nc(-c3c(O)c(C)c(O)c4c3OC3=CC(O)=C(C(C)=O)C(=O)[C@@]34C)cs2)cc1COc1ccccc1F [(+)-17c, (2R)-4-Acetyl-10-{2-[(E)-2-({3-[(2-fluorophenoxy)methyl]-4-methoxyphenyl}methylidene)hydrazin-1-yl]-1,3-thiazol-4-yl}-5,11,13-trihydroxy-2,12-dimethyl-8-oxatricyclo[7.4.0.0^2,7]trideca-1(9),4,6,10,12-pentaen-3-one] |
| 0.059 ± 0.005 µM | – | COc1ccc(/C=N/Nc2nc(-c3c(O)c(C)c(O)c4c3OC3=CC(O)=C(C(C)=O)C(=O)[C@]34C)cs2)cc1CN1CCN(c2ccc(F)cc2)CC1 [(−)-17i, (2S)-4-Acetyl-10-{2-[(E)-2-[(3-{[4-(4-fluorophenyl)piperazin-1-yl]methyl}-4-methoxyphenyl)methylidene]hydrazin-1-yl]-1,3-thiazol-4-yl}-5,11,13-trihydroxy-2,12-dimethyl-8-oxatricyclo[7.4.0.0^2,7]trideca-1(9),4,6,10,12-pentaen-3-one] |
| 0.071 ± 0.015 µM | – | COc1ccc(/C=N/Nc2nc(-c3c(O)c(C)c(O)c4c3OC3=CC(O)=C(C(C)=O)C(=O)[C@]34C)cs2)cc1CN1CCN(c2ccccc2OC)CC1 [(−)-17j, (2S)-4-Acetyl-10-{2-[(E)-2-[(3-{[4-(2-methoxyphenyl)piperazin-1-yl]methyl}-4-methoxyphenyl)methylidene]hydrazin-1-yl]-1,3-thiazol-4-yl}-5,11,13-trihydroxy-2,12-dimethyl-8-oxatricyclo[7.4.0.0^2,7]trideca-1(9),4,6,10,12-pentaen-3-one] |
| 0.021 ± 0.006 µM | – | (2R)-4-Acetyl-5,11,13-trihydroxy-2,12-dimethyl-10-{2-[(E)-2-[(1H-2-methyl-indole-3-yl) methylidene]hydrazin-1-yl]-1,3-thiazol-4-yl}-8-oxatricyclo[7.4.0.0^2,7]trideca-1(9),4,6,10,12-pentaen-3-one [(+)-16q] |
